Data as given in patent US10065963B2 (Incyte Corporation, priority 2015, dated 2018).
Where a name gives a salt, the structure may show the parent alone. Values belong to the molecule of their own block, whether it stands above or below them.

Assays:
[1] = molecular target: PI3Kγ (p110γ) Recombinant Human Protein (Homo sapiens (Human), UniProt P48736); assay: PI3K-γ scintillation proximity assay; type: biochemical; conditions: 2 μM ATP, 20 μM PIP2
[2] = molecular target: PI3Kδ (p110δ/p85α) Recombinant Human Protein (Homo sapiens (Human), UniProt O00329); assay: PI3Kδ scintillation proximity assay; type: biochemical
Chain of PI3Kδ (p110δ/p85α) Recombinant Human Protein (O00329 whole entry): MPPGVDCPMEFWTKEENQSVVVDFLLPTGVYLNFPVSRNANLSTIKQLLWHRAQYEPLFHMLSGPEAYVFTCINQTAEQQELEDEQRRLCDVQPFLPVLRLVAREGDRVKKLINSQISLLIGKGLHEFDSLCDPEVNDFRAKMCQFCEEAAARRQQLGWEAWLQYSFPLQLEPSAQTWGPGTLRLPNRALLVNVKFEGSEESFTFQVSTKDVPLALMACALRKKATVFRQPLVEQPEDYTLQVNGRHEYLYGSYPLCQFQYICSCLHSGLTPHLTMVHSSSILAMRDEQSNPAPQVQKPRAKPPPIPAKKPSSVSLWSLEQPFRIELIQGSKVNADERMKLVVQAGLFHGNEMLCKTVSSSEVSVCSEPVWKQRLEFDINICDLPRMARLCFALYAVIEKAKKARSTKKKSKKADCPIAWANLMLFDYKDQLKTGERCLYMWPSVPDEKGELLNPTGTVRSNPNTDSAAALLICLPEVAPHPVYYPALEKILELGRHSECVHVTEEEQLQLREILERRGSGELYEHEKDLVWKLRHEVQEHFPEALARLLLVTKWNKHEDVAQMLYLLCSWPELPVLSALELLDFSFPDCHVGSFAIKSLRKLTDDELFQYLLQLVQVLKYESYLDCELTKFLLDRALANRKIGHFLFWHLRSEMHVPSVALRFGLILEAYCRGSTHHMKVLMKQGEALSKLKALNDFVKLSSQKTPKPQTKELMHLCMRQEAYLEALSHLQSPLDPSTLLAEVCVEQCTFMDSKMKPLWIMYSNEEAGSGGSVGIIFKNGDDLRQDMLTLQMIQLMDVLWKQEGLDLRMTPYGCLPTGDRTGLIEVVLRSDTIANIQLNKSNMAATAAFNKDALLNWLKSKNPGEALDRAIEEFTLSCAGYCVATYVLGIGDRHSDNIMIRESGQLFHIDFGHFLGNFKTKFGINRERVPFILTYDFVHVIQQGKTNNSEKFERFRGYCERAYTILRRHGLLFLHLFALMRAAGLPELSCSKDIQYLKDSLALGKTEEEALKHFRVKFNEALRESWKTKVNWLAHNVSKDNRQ
Chain of PI3Kδ (p110δ/p85α) Recombinant Human Protein (P27986 whole entry partner): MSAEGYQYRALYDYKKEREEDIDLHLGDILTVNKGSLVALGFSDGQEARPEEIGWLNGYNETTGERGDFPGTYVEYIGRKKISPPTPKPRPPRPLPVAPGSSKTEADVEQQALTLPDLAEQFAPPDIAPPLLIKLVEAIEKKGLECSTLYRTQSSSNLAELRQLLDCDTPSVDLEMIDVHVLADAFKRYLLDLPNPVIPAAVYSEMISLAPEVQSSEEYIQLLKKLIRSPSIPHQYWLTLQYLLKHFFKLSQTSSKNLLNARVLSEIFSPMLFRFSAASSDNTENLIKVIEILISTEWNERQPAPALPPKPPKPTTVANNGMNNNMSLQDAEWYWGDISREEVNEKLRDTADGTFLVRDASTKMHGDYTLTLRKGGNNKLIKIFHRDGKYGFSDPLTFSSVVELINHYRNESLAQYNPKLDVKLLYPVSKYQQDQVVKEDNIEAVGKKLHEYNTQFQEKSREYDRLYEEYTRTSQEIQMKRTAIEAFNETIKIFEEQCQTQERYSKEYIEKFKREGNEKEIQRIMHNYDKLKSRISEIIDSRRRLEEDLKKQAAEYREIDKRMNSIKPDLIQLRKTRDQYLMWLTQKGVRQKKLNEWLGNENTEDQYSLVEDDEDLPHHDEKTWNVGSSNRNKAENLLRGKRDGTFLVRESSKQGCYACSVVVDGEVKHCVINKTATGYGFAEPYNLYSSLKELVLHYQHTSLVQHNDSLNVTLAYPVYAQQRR

Chain of PI3Kγ (p110γ) Recombinant Human Protein (P48736 whole entry): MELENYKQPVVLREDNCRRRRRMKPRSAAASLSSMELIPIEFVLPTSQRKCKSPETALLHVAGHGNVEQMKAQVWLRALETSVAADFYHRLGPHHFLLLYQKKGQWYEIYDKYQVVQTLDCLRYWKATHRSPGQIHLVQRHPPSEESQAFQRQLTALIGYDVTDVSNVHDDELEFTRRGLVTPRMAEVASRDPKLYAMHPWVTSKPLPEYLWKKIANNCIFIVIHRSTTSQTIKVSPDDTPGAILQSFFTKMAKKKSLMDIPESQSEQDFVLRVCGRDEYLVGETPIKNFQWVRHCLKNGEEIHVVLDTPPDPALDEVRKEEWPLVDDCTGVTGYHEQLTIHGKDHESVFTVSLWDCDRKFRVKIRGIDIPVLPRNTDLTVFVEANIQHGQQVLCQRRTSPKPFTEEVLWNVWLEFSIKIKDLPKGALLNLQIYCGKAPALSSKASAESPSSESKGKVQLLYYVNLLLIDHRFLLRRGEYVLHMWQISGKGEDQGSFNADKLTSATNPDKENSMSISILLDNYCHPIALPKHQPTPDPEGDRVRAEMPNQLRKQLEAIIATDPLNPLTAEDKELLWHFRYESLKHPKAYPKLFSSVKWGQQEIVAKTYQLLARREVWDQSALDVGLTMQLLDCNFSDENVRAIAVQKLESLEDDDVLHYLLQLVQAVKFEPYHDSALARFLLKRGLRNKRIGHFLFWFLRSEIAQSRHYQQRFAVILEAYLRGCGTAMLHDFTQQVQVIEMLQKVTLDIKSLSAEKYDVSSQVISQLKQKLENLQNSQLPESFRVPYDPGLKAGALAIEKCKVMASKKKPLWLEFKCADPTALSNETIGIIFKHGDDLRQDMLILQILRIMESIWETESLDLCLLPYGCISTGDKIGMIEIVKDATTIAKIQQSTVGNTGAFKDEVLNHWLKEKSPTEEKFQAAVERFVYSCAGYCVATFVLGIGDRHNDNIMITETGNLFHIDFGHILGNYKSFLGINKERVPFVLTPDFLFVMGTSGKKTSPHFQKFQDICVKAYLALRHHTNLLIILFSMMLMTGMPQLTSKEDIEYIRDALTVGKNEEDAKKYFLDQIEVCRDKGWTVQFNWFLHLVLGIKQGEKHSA

SMILES: CC(NC(=O)c1c(N)nn2cccnc12)c1cc(C2CC2)c2cncn2c1-c1ccccc1 (racemic) [Example 117, 2-Amino-N-[1-(8-cyclopropyl-5-phenylimidazo[1,5-a]pyridin-6-yl)ethyl]pyrazolo[1,5-a]pyrimidine-3-carboxamide trifluoroacetate salt]
IC50 [1]: < 500 nM
IC50 ([2]; 2 μM ATP, 20 μM PIP2): < 2000 nM

SMILES: CNC(=O)c1ccc(-c2c(C(C)NC(=O)c3c(N)nn4cccnc34)cc(Cl)c3cncn23)cn1 (racemic) [Example 132, 2-Amino-N-[1-{8-chloro-5-{6-[(methylamino)carbonyl]pyridin-3-yl}imidazo [1,5-a]pyridin-6-yl)ethyl]pyrazolo[1,5-a]pyrimidine-3-carboxamide trifluoroacetate salt]
IC50 [1]: < 500 nM
IC50 ([2]; 2 μM ATP, 20 μM PIP2): < 500 nM

SMILES: CC(NC(=O)c1c(N)nn2cccnc12)c1cc(Cl)c2c(C(F)(F)F)ncn2c1N1CCNS(=O)(=O)CC1 (racemic) [Example 159, 2-Amino-N-{1-[8-chloro-5-(1,1-dioxido-1,2,5-thiadiazepan-5-yl)-1-(trifluoromethyl)imidazo[1,5-a]pyridin-6-yl]ethyl}pyrazolo[1,5-a]pyrimidine-3-carboxamide trifluoroacetate salt]
IC50 [1]: < 500 nM
IC50 ([2]; 2 μM ATP, 20 μM PIP2): < 2000 nM

SMILES: CC(NC(=O)c1c(N)nn2cccnc12)c1cc(Cl)c2cncn2c1C1CCCCC1 (racemic) [Example 183, 2-Amino-N-[1-(8-chloro-5-cyclohexylimidazo[1,5-a]pyridin-6-yl)ethyl]pyrazolo[1,5-a]pyrimidine-3-carboxamide trifluoroacetate salt]
IC50 [1]: < 500 nM
IC50 ([2]; 2 μM ATP, 20 μM PIP2): < 2000 nM

SMILES: Cc1nnc2c(Cl)cc(C(C)NC(=O)c3c(N)nn4cccnc34)c(-c3ccccc3)n12 (racemic) [Example 184, 2-Amino-N-[1-(8-chloro-3-methyl-5-phenyl[1,2,4]triazolo[4,3-a]pyridin-6-yl)ethyl]pyrazolo[1,5-a]pyrimidine-3-carboxamide trifluoroacetate salt]
IC50 [1]: < 500 nM
IC50 ([2]; 2 μM ATP, 20 μM PIP2): ≥ 2000 nM

SMILES: CC(NC(=O)c1c(N)nn2cccnc12)c1cc(Cl)c2nncn2c1-c1ccccc1 (racemic) [Example 185, 2-Amino-N-[1-(8-chloro-5-phenyl[1,2,4]triazolo[4,3-a]pyridin-6-yl)ethyl]pyrazolo[1,5-a]pyrimidine-3-carboxamide trifluoroacetate salt]
IC50 [1]: < 500 nM
IC50 ([2]; 2 μM ATP, 20 μM PIP2): ≥ 2000 nM

SMILES: CCOc1c(C(C)NC(=O)c2c(N)nn3cccnc23)cc(Cl)c2cn[nH]c12 (single isomer, unassigned) [Example 3b, 2-amino-N-[1-(4-chloro-7-ethoxy-1H-indazol-6-yl)ethyl]pyrazolo[1,5-a]pyrimidine-3-carboxamide trifluoroacetate]
IC50 [1]: > 2000 nM
IC50 ([2]; 2 μM ATP, 20 μM PIP2): ≥ 2000 nM

SMILES: CCOc1c(C(C)NC(=O)c2c(N)nn3cccnc23)cc(Cl)c2cn(CCOC)nc12 (stereo not shown) [Example 5a, 2-amino-N-(1-(4-chloro-7-ethoxy-2-(2-methoxyethyl)-2H-indazol-6-yl)ethyl)pyrazolo[1,5-a]pyrimidine-3-carboxamide trifluoroacetate]
IC50 [1]: < 2000 nM
IC50 ([2]; 2 μM ATP, 20 μM PIP2): < 2000 nM

SMILES: COc1c(C(C)n2nc(C)c3c(N)ncnc32)cc(Cl)c(C#N)c1C1CN(C[C@H](C)O)C1 (stereo partly drawn) [Example 29, 4-[1-(4-amino-3-methyl-1H-pyrazolo[3,4-d]pyrimidin-1-yl)ethyl]-6-chloro-2-{1-[(2S)-2-hydroxypropyl]azetidin-3-yl}-3-methoxybenzonitrile]
IC50 ([2]; Table B, Assay C): < 50 nM

SMILES: COc1c(C(C)n2nc(C)c3c(N)ncnc32)cc(Cl)c(C#N)c1C1CN(CCO)C1 (stereo not shown) [Example 30, 4-[1-(4-amino-3-methyl-1H-pyrazolo[3,4-d]pyrimidin-1-yl)ethyl]-6-chloro-2-[1-(2-hydroxyethyl)azetidin-3-yl]-3-methoxybenzonitrile]
IC50 ([2]; Table B, Assay C): < 50 nM

SMILES: CCOc1c(C(C)n2nc(C)c3c(N)ncnc32)cc(C)c(C#N)c1-c1ccc(C(=O)N(C)C)nc1 (stereo not shown) [Example 31, 5-{3-[1-(4-amino-3-methyl-1H-pyrazolo[3,4-d]pyrimidin-1-yl)ethyl]-6-cyano-2-ethoxy-5-methylphenyl}-N,N-dimethylpyridine-2-carboxamide, reference compound]
IC50 ([2]; Table B, Assay C): < 50 nM

SMILES: CCOc1c(C(C)NC(=O)c2c(N)nc3ccc(C)nn23)cc(Cl)c2cn[nH]c12 (stereo not shown) [Example 46, 2-Amino-N-(1-(4-chloro-7-ethoxy-1H-indazol-6-yl)ethyl)-6-methylimidazo[1,2-b]pyridazine-3-carboxamide]
IC50 [1]: < 500 nM
IC50 ([2]; 2 μM ATP, 20 μM PIP2): < 500 nM

SMILES: CCOc1c(C(C)NC(=O)c2c(N)nc3ccc(N4CCCCC4)nn23)cc(Cl)c2cn[nH]c12 (stereo not shown) [Example 47, 2-Amino-N-(1-(4-chloro-7-ethoxy-1H-indazol-6-yl)ethyl)-6-(piperidin-1-yl)imidazo[1,2-b]pyridazine-3-carboxamide]
IC50 [1]: < 500 nM
IC50 ([2]; 2 μM ATP, 20 μM PIP2): < 500 nM

SMILES: CCc1n[nH]c2c(-c3ccccc3)c(C(C)NC(=O)c3c(N)nn4cccnc34)cc(Cl)c12 (stereo not shown) [Example 51, 2-Amino-N-(1-(4-chloro-3-ethyl-7-phenyl-1H-indazol-6-yl)ethyl)pyrazolo[1,5-a]pyrimidine-3-carboxamide trifluoroacetate]
IC50 [1]: < 2000 nM
IC50 ([2]; 2 μM ATP, 20 μM PIP2): ≥ 2000 nM

SMILES: CC(NC(=O)c1c(N)nn2cccnc12)c1cc(Cl)c2cn[nH]c2c1OCCCN (stereo not shown) [Example 64, 2-Amino-N-{1-[7-(3-aminopropoxy)-4-chloro-1H-indazol-6-yl]ethyl}pyrazolo[1,5-a]pyrimidine-3-carboxamide bis(trifluoroacetate)]
IC50 [1]: < 500 nM
IC50 ([2]; 2 μM ATP, 20 μM PIP2): < 500 nM

SMILES: CC(NC(=O)c1c(N)nn2cccnc12)c1cc(Cl)c2cncn2c1N1CCCC(F)C1 (stereo not shown) [Example 73C-73D, 2-Amino-N-{1-[8-chloro-5-(3-fluoropiperidin-1-yl)imidazo[1,5-a]pyridin-6-yl]ethyl}pyrazolo[1,5-a]pyrimidine-3-carboxamide]
IC50 [1]: < 500 nM
IC50 ([2]; 2 μM ATP, 20 μM PIP2): ≥ 2000 nM

SMILES: CC(NC(=O)c1c(N)nn2cccnc12)c1cc(Cl)c2cn[nH]c2c1C1=CCN(C(=O)OCc2ccccc2)CC1 (stereo not shown) [Example 98, Benzyl 4-[6-(1-{[(2-aminopyrazolo[1,5-a]pyrimidin-3-yl)carbonyl]amino}ethyl)-4-chloro-2H-indazol-7-yl]-3,6-dihydropyridine-1(2H)-carboxylate bis(trifluoroacetate)]
IC50 [1]: < 500 nM
IC50 ([2]; 2 μM ATP, 20 μM PIP2): < 2000 nM

SMILES: CC(NC(=O)c1c(N)nn2cccnc12)c1cc(Cl)c2cn[nH]c2c1C1=CCNCC1 (stereo not shown) [Example 99, 2-Amino-N-{1-[4-chloro-7-(1,2,3,6-tetrahydropyridin-4-yl)-2H-indazol-6-yl]ethyl}pyrazolo[1,5-a]pyrimidine-3-carboxamide bis(trifluoroacetate)]
IC50 [1]: < 500 nM
IC50 ([2]; 2 μM ATP, 20 μM PIP2): < 100 nM

The next lines start with the values.

IC50 ([2]; Table B, Assay C): 50 to 200 nM
SMILES: CCOc1c(C(C)n2nc(C)c3c(N)ncnc32)cc(Cl)c(F)c1C1CNC(=O)C1 (single isomer, unassigned) [Example 32a, 4-{3-[1-(4-amino-3-methyl-1H-pyrazolo[3,4-d]pyrimidin-1-yl)ethyl]-5-chloro-2-ethoxy-6-fluorophenyl}pyrrolidin-2-one, reference compound]

IC50 ([2]; Table B, Assay C): < 50 nM
SMILES: CCOc1c(C(C)n2nc(C)c3c(N)ncnc32)cc(Cl)c(F)c1C1CNC(=O)C1 (single isomer, unassigned) [Example 32b, 4-{3-[1-(4-amino-3-methyl-1H-pyrazolo[3,4-d]pyrimidin-1-yl)ethyl]-5-chloro-2-ethoxy-6-fluorophenyl}pyrrolidin-2-one, reference compound]

IC50 ([2]; Table B, Assay C): < 50 nM
SMILES: CCOc1c(C(C)n2nc(C)c3c(N)ncnc32)cc(Cl)c(F)c1C1CNC(=O)C1 (single isomer, unassigned) [Example 32c, 4-{3-[1-(4-amino-3-methyl-1H-pyrazolo[3,4-d]pyrimidin-1-yl)ethyl]-5-chloro-2-ethoxy-6-fluorophenyl}pyrrolidin-2-one, reference compound]

IC50 ([2]; Table B, Assay C): 50 to 200 nM
SMILES: CCOc1c(C(C)n2nc(C)c3c(N)ncnc32)cc(Cl)c(F)c1C1CNC(=O)C1 (single isomer, unassigned) [Example 32d, 4-{3-[1-(4-amino-3-methyl-1H-pyrazolo[3,4-d]pyrimidin-1-yl)ethyl]-5-chloro-2-ethoxy-6-fluorophenyl}pyrrolidin-2-one, reference compound]

IC50 [1]: < 2000 nM
IC50 ([2]; 2 μM ATP, 20 μM PIP2): < 2000 nM
SMILES: CCOc1c(C(C)NC(=O)c2c(N)nn3cccnc23)cc(Cl)c2cn(CCO)nc12 (stereo not shown) [Example 6a, 2-amino-N-(1-(4-chloro-7-ethoxy-2-(2-hydroxyethyl)-2H-indazol-6-yl)ethyl)pyrazolo[1,5-a]pyrimidine-3-carboxamide trifluoroacetate]

IC50 [1]: > 2000 nM
IC50 ([2]; 2 μM ATP, 20 μM PIP2): ≥ 2000 nM
SMILES: CCOc1c(C(C)NC(=O)c2c(N)nn3cccnc23)cc(Cl)c2cn(CC#N)nc12 (stereo not shown) [Example 7a, 2-amino-N-(1-(4-chloro-2-(cyanomethyl)-7-ethoxy-2H-indazol-6-yl)ethyl)pyrazolo[1,5-a]pyrimidine-3-carboxamide trifluoroacetate]

IC50 [1]: < 2000 nM
IC50 ([2]; 2 μM ATP, 20 μM PIP2): ≥ 2000 nM
SMILES: CCOc1c(C(C)NC(=O)c2c(N)nn3cccnc23)cc(Cl)c2cn(Cc3ccccc3)nc12 (stereo not shown) [Example 8a, 2-amino-N-(1-(2-benzyl-4-chloro-7-ethoxy-2H-indazol-6-yl)ethyl)pyrazolo[1,5-a]pyrimidine-3-carboxamide trifluoroacetate]

IC50 [1]: < 2000 nM
IC50 ([2]; 2 μM ATP, 20 μM PIP2): ≥ 2000 nM
SMILES: CCOc1c(C(C)NC(=O)c2c(N)nn3cccnc23)cc(Cl)c2cn(CC(C)C)nc12 (stereo not shown) [Example 9a, 2-amino-N-(1-(4-chloro-7-ethoxy-2-isobutyl-2H-indazol-6-yl)ethyl)pyrazolo[1,5-a]pyrimidine-3-carboxamide trifluoroacetate]

IC50 [1]: < 2000 nM
IC50 ([2]; 2 μM ATP, 20 μM PIP2): ≥ 2000 nM
SMILES: CCOc1c(C(C)NC(=O)c2c(N)nn3cccnc23)cc(Cl)c2cn(C3CCC3)nc12 (stereo not shown) [Example 10a, 2-amino-N-(1-(4-chloro-2-cyclobutyl-7-ethoxy-2H-indazol-6-yl)ethyl)pyrazolo[1,5-a]pyrimidine-3-carboxamide trifluoroacetate]

IC50 [1]: < 2000 nM
IC50 ([2]; 2 μM ATP, 20 μM PIP2): ≥ 2000 nM
SMILES: CCOc1c(C(C)NC(=O)c2c(N)nn3cccnc23)cc(Cl)c2cn(C(C)C)nc12 (stereo not shown) [Example 11a, 2-amino-N-(1-(4-chloro-7-ethoxy-2-isopropyl-2H-indazol-6-yl)ethyl)pyrazolo[1,5-a]pyrimidine-3-carboxamide trifluoroacetate]
